Earlier results in patent publication US20200246404A1, “FORMULATIONS” (Molecular Infusions, LLC, priority 2017, published 2020).

Tests used:
human PBMCs = human PBMCs in vitro
encephalitogenic T cells = encephalitogenic T cells after in vivo application to rats

CCCCCc1cc(O)c2c(c1)OC(C)(C)[C@@H]1CCC(C)=C[C@@H]21 [dronabinol, Synthetic Δ9-tetrahydrocannabinol]
duration of action for psychoactive effects (in vivo): 4 to 6 h
administered dose that reaches the systemic circulation (oral): 10 to 20%

CCOC(=O)C(C)=O [Ethyl pyruvate]
release of IFN-γ and IL-17 (human PBMCs): efficiently suppressed
release of IFN-γ and IL-17 (encephalitogenic T cells): efficiently suppressed
